According to patent publication US6391871B1 (priority 1996, dated 2002):
“Also recorded” adds a separate entry of the source. Like-named read-outs stand apart in the source and are kept apart here.

How the values were obtained:
vacuolated PC/RS neurons = assay: Safener assay: prevention of MK-801-induced vacuole formation in PC/RS neurons; conditions: for blocking of MK-801 neurotoxicity / vacuole formation: tested against MK-801; for ED50: 4 h
Experimental: For each test agent, at least 5 dosages of the candidate safener agent were tested, and at least 4 rats were used in each dosage group.
The rats were sacrificed four hours after treatment, for histopathological evaluation. The number of vacuolated PC/RS neurons were counted on each side of the brain, at a rostrocaudal level immediately posterior to where the corpus callosum ceases decussating across the midline (approximately 5.6 mm caudal to bregma).
The result was subtracted from one and multiplied by 100, to calculate a percentage.
The confidence limits, in the right column, were the safener dosages that reduced vacuoles by 25% and 75%.

[1] = tested on: pyramidal neurons in layers III and IV of the posterior cingulate and retrosplenial (PC/RS) cortices; assay: In vivo assay of toxic side effects of NMDA antagonists (vacuole formation in PC/RS cortex)
NMDA receptors = type: cell-based, chick
Experimental: Potency rating=minimum concentration required to provide total protection against neurotoxic effects of NMDA (40 μM) in chick embryo retinal tissue tests
These experiments were performed using segments of chick embryo retina. This is a widely used model for studying the production and prevention of excitotoxic phenomena, since it is a simple and inexpensive preparation, and since chick tissue provides a better model of adult mammalian neurons than embryonic or juvenile mammalian tissue. All of the glutamate receptors that mediate excitotoxic phenomena are present in chick retinas, and are sensitive to excitotoxic stimulation. By contrast, in embryonic or juvenile mammalian tissue, various glutamate receptors are not fully matured and are not responsive in the same ways that occur in adult mammalian tissue.
In these tests, NMDA is introduced into the incubation medium in a concentration ([…]) sufficient to produce a fully developed excitotoxic lesion within 30 min, displaying acute degeneration and necrosis of the majority of neurons in the inner layers of the retina. The control retinas are incubated with NMDA alone, and experimental retinas are incubated with NMDA plus a test compound that is being evaluated for NMDA antagonist properties. […] All agents that prevent NMDA from hyperactivating NMDA receptors and thereby inducing an excitotoxic neurodegenerative reaction in the chick embryo retina are considered appropriate candidate drugs for preventing NMDA receptor hyperactivation and NMDA receptor burnout in the presymptomatic stages of Alzheimer's disease.
The concentration of the test compound required to prevent NMDA from inducing neuronal degeneration in the chick retina tissue is considered a measure of its expected potency for preventing NMDA receptor hyperactivation and NMDA receptor burnout in the presymptomatic stages of Alzheimer's disease.

[2] = tested on: NMDA receptors in the hypothalamus; assay: NMDA receptor hyperactivation in the hypothalamic-pituitary neuroendocrine regulatory system; conditions: for damage to the reproductive regulatory (NMDA receptor) system: high dose, rats
Experimental: The explanation for this is that normally, neurons in the hypothalamus that have NMDA receptors on their surface are activated by the excitatory transmitter, glutamate, which causes them to send a message to the pituitary resulting in pituitary release of LH. When NMDA is administered, it enters the hypothalamus and mimics glutamate by acting at the same NMDA receptors that glutamate would activate. This triggers the same sequence of events that glutamate would normally trigger. The action of glutamate at these NMDA receptors represents a physiological mechanism by which glutamate normally regulates the amount of reproductive hormones (e.g., LH) that circulate in the blood. For a detailed review describing this neuroendocrine regulatory system, see Olney and Price 1978.
These excitotoxic molecules (NMDA or glutamate) enter the hypothalamus and hyperactivate NMDA receptors so vigorously and continuously that it destroys the NMDA receptor system, and leaves it permanently unresponsive to subsequent stimulation, either by exogenously administered NMDA, or by endogenous glutamate.
Affected animals develop a neuroendocrine deficiency syndrome, which leads to symptoms such as obesity, sterility, and ongoing degeneration of their reproductive organs.

sigma receptors = conditions: cited from earlier work
cerebrocortical neurons = conditions: Olney et al 1989, Corso et al 1994; cited from earlier work
[3] = tested on: pyramidal neurons in layers III and IV of the posterior cingulate and retrosplenial (PC/RS) cortices; conditions: rat, in vivo; for neurotoxic (vacuole) reaction in PC/RS cortex, drug by itself: ip
[4] = NMDA 40 μM, chick embryo retinal tissue
[5] = dose reducing mean number of vacuolated PC/RS neurons to 50% of MK-801 (0.5 mg/kg sc) controls, rats

CCN(CC)C(=O)N[C@H]1C=C2c3cccc4[nH]cc(c34)C[C@H]2N(C)C1 [Lisuride]
blocking of MK-801 neurotoxicity / vacuole formation (vacuolated PC/RS neurons): block MK-801 toxicity

C=CCN1CC[C@]2(C)c3cc(O)ccc3C[C@H]1[C@H]2C [SKF (+)10,047]
neurotoxic (vacuole) reaction in PC/RS cortex, drug by itself ([1]; adult female rats, ip, sacrificed four hours after treatment): neither SKF (+)10,047 by itself, nor eliprodil by itself, caused a vacuole reaction; also recorded: neither SKF (+)10,047 nor ibogaine by itself caused vacuoles

O=C(CCCN1CCC(O)(c2ccc(Cl)cc2)CC1)c1ccc(F)cc1 [Haloperidiol]
ED50 (vacuolated PC/RS neurons; Rattus norvegicus, Neuron, sc): 5.1 mg/kg

O=C(O)c1cc(O)c2ccc(Cl)cc2n1 [7-CL-Kynurenic acid, 7-chloro-kynurenic acid]
POTENCY RATING = minimum concentration required to provide total protection against neurotoxic effects of NMDA (NMDA receptors): 50 µM

CN1[C@@H]2C[C@@H](OC(=O)[C@H](CO)c3ccccc3)C[C@H]1[C@@H]1O[C@@H]12 [Scopolamine]
ED50 (vacuolated PC/RS neurons; Rattus norvegicus, Neuron, sc): 0.13 mg/kg

C[C@]12N[C@H](Cc3ccccc31)c1ccccc12 [MK-801, (+)-5-methyl-10,11-dihydro-5H-di[a,d]-cyclohepten-5,10-imine]
neurotoxic reaction induced by MK-801 (vacuolated PC/RS neurons; MK-801 0.5 mg/kg sc, all treated rats): fully developed neurotoxic reaction | POTENCY RATING = minimum concentration required to provide total protection against neurotoxic effects of NMDA (NMDA receptors): […]

CC(Oc1c(Cl)cccc1Cl)C1=NCCN1 (centres unmarked) [Lofexidine]
ED50 (vacuolated PC/RS neurons; Rattus norvegicus, Neuron, sc): 0.38 mg/kg

O=[N+]([O-])c1cc2nc(O)c(O)nc2cc1[N+](=O)[O-] [DNQX]
POTENCY RATING = minimum concentration required to provide total protection against neurotoxic effects of NMDA (NMDA receptors; [4]): 100 µM

Cc1cc2c(s1)Nc1ccccc1N=C2N1CCN(C)CC1 [Olanzapine]
ED50 (vacuolated PC/RS neurons; Rattus norvegicus, Neuron, sc): 0.6 mg/kg

CN[C@H](CC(=O)O)C(=O)O [NMDA, n-methyl-D-aspartate]
pituitary secretion of reproductive hormones (LH) ([2]; NMDA subcutaneously or intravenously, rodents): causing the pituitary gland to secrete into the blood certain reproductive hormones such as luteinizing hormone | damage to the reproductive regulatory (NMDA receptor) system [2]: permanently damage and inactivate this reproductive regulatory system

N#Cc1cc2[nH]c(=O)c(=O)[nH]c2cc1[N+](=O)[O-] [CNQX]
POTENCY RATING = minimum concentration required to provide total protection against neurotoxic effects of NMDA (NMDA receptors): 200 µM

COc1cc(CC(C)N)c(OC)cc1Br (centres unmarked) [DOB]
ED50 (vacuolated PC/RS neurons; [5]): 0.36 mg/kg, ip

CN1CCN(C2=Nc3cc(F)ccc3Cc3ccccc32)CC1 [Fluperlapine]
ED50 (vacuolated PC/RS neurons; Rattus norvegicus, Neuron, sc): 2.4 mg/kg

OC(CCN1CCCCC1)(c1ccccc1)C1CCCCC1 (centres unmarked) [Trihexyphenidyl]
ED50 (vacuolated PC/RS neurons; Rattus norvegicus, Neuron, sc): 2.14 mg/kg | binding at sigma receptors (sigma receptors): strong binding affinity not only to muscarinic receptors, but also to sigma receptors

CC(C(O)c1ccc(O)cc1)N1CCC(Cc2ccccc2)CC1 (centres unmarked) [Ifenprodil]
POTENCY RATING = minimum concentration required to provide total protection against neurotoxic effects of NMDA (NMDA receptors): 50 µM

CN1CCN(C2=Nc3cc(Cl)ccc3Nc3ccccc32)CC1 [Clozapine]
ED50 (vacuolated PC/RS neurons; Rattus norvegicus, Neuron, sc): 2.8 mg/kg

N[C@H](CCCP(=O)(O)O)C(=O)O [D-AP5, D-2-amino-5-phosphonopentanoic acid]
POTENCY RATING = minimum concentration required to provide total protection against neurotoxic effects of NMDA (NMDA receptors; [4]): 25 µM

CCCC(C)C1(CC)C(=O)NC(=O)NC1=O (centres unmarked) [Pentobarbital]
ED50 (vacuolated PC/RS neurons; Rattus norvegicus, Neuron, sc): 13.1 mg/kg

CCNC1(c2cccs2)CCCCC1=O (centres unmarked) [Tiletamine]
POTENCY RATING = minimum concentration required to provide total protection against neurotoxic effects of NMDA (NMDA receptors; [4]): 5 µM | pathological changes in cerebral cortex / corticolimbic regions of adult rats (cerebrocortical neurons): cause pathological changes in the cerebral cortex of adult rats

C[C@@H]1CN(CCCn2c3ccccc3c3ccccc32)C[C@H](C)N1 [Rimcazole]
ED50 (vacuolated PC/RS neurons; Rattus norvegicus, Neuron, sc): 17.8 mg/kg

CN1C(=O)CN=C(c2ccccc2)c2cc(Cl)ccc21 [Diazepam]
ED50 (vacuolated PC/RS neurons; Rattus norvegicus, Neuron, sc): 1 mg/kg

FC(F)(F)C(Cl)Br (centres unmarked) [halothane]
blocking of MK-801 neurotoxicity / vacuole formation (vacuolated PC/RS neurons): effectively block vacuole formation

CN1[C@@H]2CC[C@H]1C[C@@H](OC(c1ccccc1)c1ccccc1)C2 [Benztropine]
ED50 (vacuolated PC/RS neurons; Rattus norvegicus, Neuron, sc): 1.29 mg/kg

OC(CCN1CCCC1)(c1ccccc1)C1CCCCC1 (centres unmarked) [Procyclidine]
POTENCY RATING = minimum concentration required to provide total protection against neurotoxic effects of NMDA (NMDA receptors; [4]): 15 µM

O=C(O)C1CN(CCCP(=O)(O)O)CCN1 (centres unmarked) [CPP]
POTENCY RATING = minimum concentration required to provide total protection against neurotoxic effects of NMDA (NMDA receptors; [4]): 10 µM

COc1cc(CC(C)N)c(OC)cc1I (centres unmarked) [DOI]
ED50 (vacuolated PC/RS neurons; [5]): 1.05 mg/kg, ip

Ibogaine
NMDA antagonist properties in the chick retina assay (NMDA receptors): definite NMDA antagonist properties | POTENCY RATING = minimum concentration required to provide total protection against neurotoxic effects of NMDA (NMDA receptors; [4]): 15 µM | binding at sigma receptors (sigma receptors): strong binding affinity at sigma receptors

CC(C)c1cccc(C(C)C)c1O [propofol]
blocking of MK-801 neurotoxicity / vacuole formation (vacuolated PC/RS neurons): effectively block vacuole formation

C=CCC1(C(C)CCC)C(=O)NC(=O)NC1=O (centres unmarked) [Secobarbital]
ED50 (vacuolated PC/RS neurons; Rattus norvegicus, Neuron, sc): 15.3 mg/kg

N[C@@H](CCC(=O)O)C(=O)O [glutamate]
damage to the reproductive regulatory (NMDA receptor) system [2]: permanently damage and inactivate this reproductive regulatory system

FC(F)OC(Cl)C(F)(F)F (centres unmarked) [isoflurane]
blocking of MK-801 neurotoxicity / vacuole formation (vacuolated PC/RS neurons): effectively block vacuole formation

CSc1ccc2c(c1)N(CCC1CCCCN1C)c1ccccc1S2 (centres unmarked) [Thioridazine]
ED50 (vacuolated PC/RS neurons; Rattus norvegicus, Neuron, sc): 55.3 mg/kg

OC(CN1CCC(Cc2ccc(F)cc2)CC1)c1ccc(Cl)cc1 (centres unmarked) [Eliprodil]
nearly a lethal dose (highest dose tested) ([1]; rats): 100 mg/kg/ip | NMDA antagonist properties in the chick retina assay (NMDA receptors): definite NMDA antagonist properties | POTENCY RATING = minimum concentration required to provide total protection against neurotoxic effects of NMDA (NMDA receptors): 30 µM | neurotoxic (vacuole) reaction in PC/RS cortex, drug by itself ([3]; female, Sprague Dawley, 4 h): neither SKF (+)10,047 by itself, nor eliprodil by itself, caused a vacuole reaction | neurotoxic reaction in the PC/RS cortex at the highest dose tested [3]: did not cause a neurotoxic reaction | neurotoxic (vacuole) reaction in PC/RS cortex, drug by itself [3]: did not cause this neurotoxic reaction | binding at sigma receptors (sigma receptors): strong binding activity at sigma receptors

N=C(N)N/N=C/c1c(Cl)cccc1Cl [Guanabenz]
ED50 (vacuolated PC/RS neurons; Rattus norvegicus, Neuron, sc): 0.21 mg/kg

O=C(O)[C@@H]1C[C@H](CP(=O)(O)O)CCN1 [CGS 19755]
POTENCY RATING = minimum concentration required to provide total protection against neurotoxic effects of NMDA (NMDA receptors; [4]): 5 µM

Clc1cccc(Cl)c1N=C1NCCN1 [Clonidine]
ED50 (vacuolated PC/RS neurons; Rattus norvegicus, Neuron, sc): 0.044 mg/kg

COc1ccc2c(c1)[C@]13CCCC[C@@H]1[C@H](C2)N(C)CC3 [Dextromethorphan]
POTENCY RATING = minimum concentration required to provide total protection against neurotoxic effects of NMDA (NMDA receptors; [4]): 25 µM

Clc1cc(I)cc(Cl)c1NC1=NCCN1 [p-Iodoclonidine]
ED50 (vacuolated PC/RS neurons; [5]): 1.3 mg/kg, ip
